Results published in ChEMBL document CHEMBL2177076, “Rational design of potent non-nucleoside inhibitors of HIV-1 reverse transcriptase” (J Med Chem, 2012).
Active and inactive are the calls of the source. The calls are words filed in the database; no cut-off is given here.

Assays:
[1] = test system: Human immunodeficiency virus 1; test: Antiviral activity against NNRTI-resistant HIV1 harboring reverse transcriptase Y188L mutant infected in human MT4 cells assessed as inhibition of viral replication after 72 hrs by HeLa-CD4-LTR-beta-gal assay; assay type: functional, organism-based; details: Human immunodeficiency virus 1, MT4, 72 h
[2] = test system: Human immunodeficiency virus 1; test: Antiviral activity against NNRTI-resistant HIV1 harboring reverse transcriptase Y181C mutant infected in human MT4 cells assessed as inhibition of viral replication after 72 hrs by HeLa-CD4-LTR-beta-gal assay; assay type: functional, organism-based; details: Human immunodeficiency virus 1, MT4, 72 h
[3] = test system: Human immunodeficiency virus 1; test: Antiviral activity against HIV1 expressing wild type reverse transcriptase infected in human MT4 cells assessed as inhibition of viral replication after 72 hrs by HeLa-CD4-LTR-beta-gal assay; assay type: functional, organism-based; details: Human immunodeficiency virus 1, MT4, 72 h
[4] = test system: Human immunodeficiency virus 1; test: Antiviral activity against NNRTI-resistant HIV1 harboring reverse transcriptase K103N mutant infected in human MT4 cells assessed as inhibition of viral replication after 72 hrs by HeLa-CD4-LTR-beta-gal assay; assay type: functional, organism-based; details: Human immunodeficiency virus 1, MT4, 72 h
[5] = Dissociation constant, pKa of the compound; assay type: physicochemical
[6] = test system: Human immunodeficiency virus 1; test: Antiviral activity against NNRTI-resistant HIV1 harboring reverse transcriptase Y181C/V179F double mutant infected in human MT4 cells assessed as inhibition of viral replication after 72 hrs by HeLa-CD4-LTR-beta-gal assay; assay type: functional, organism-based
[7] = test system: Human immunodeficiency virus 1; test: Antiviral activity against NNRTI-resistant HIV1 harboring reverse transcriptase Y181C/F227C double mutant infected in human MT4 cells assessed as inhibition of viral replication after 72 hrs by HeLa-CD4-LTR-beta-gal assay; assay type: functional, organism-based
[8] = test system: Human immunodeficiency virus 1; test: Antiviral activity against NNRTI-resistant HIV1 harboring reverse transcriptase Y181I/V179F double mutant infected in human MT4 cells assessed as inhibition of viral replication after 72 hrs by HeLa-CD4-LTR-beta-gal assay; assay type: functional, organism-based
[9] = test system: Human immunodeficiency virus 1; test: Antiviral activity against NNRTI-resistant HIV1 harboring reverse transcriptase Y181C/K103N double mutant infected in human MT4 cells assessed as inhibition of viral replication after 72 hrs by HeLa-CD4-LTR-beta-gal assay; assay type: functional, organism-based
[10] = Half life in Sprague-Dawley rat at 1 mg/kg, iv; assay type: ADME, organism-based; design: dose 1 mg/kg, route intravenous; details: in vivo
Rattus norvegicus = test: AUC (0 to infinity) in Sprague-Dawley rat at 5 mg/kg, po; assay type: ADME, organism-based, Plasma; design: time infinity, dose 5 mg/kg, route oral; details: in vivo
[11] = Half life in dog at 1 mg/kg, iv; assay type: ADME, organism-based, Canis lupus familiaris; design: dose 1 mg/kg, route intravenous; details: in vivo
[12] = Oral bioavailability in Sprague-Dawley rat at 5 mg/kg; assay type: ADME, organism-based; details: in vivo
Cynomolgus monkey = test: AUC (0 to infinity) in cynomolgus monkey at 5 mg/kg, po; assay type: ADME, organism-based, Macaca fascicularis, Plasma; design: time infinity, dose 5 mg/kg, route oral; details: in vivo
[13] = Volume of distribution at steady state in cynomolgus monkey at 1 mg/kg, iv; assay type: ADME, organism-based, Macaca fascicularis; design: dose 1 mg/kg, route intravenous; details: in vivo, read-out: Vdss
[14] = Half life in mouse at 1 mg/kg, iv; assay type: ADME, organism-based; design: dose 1 mg/kg, route intravenous; details: in vivo
[15] = Clearance in cynomolgus monkey at 1 mg/kg, iv; assay type: ADME, organism-based, Macaca fascicularis; design: dose 1 mg/kg, route intravenous; details: in vivo
[16] = Oral bioavailability in dog at 5 mg/kg; assay type: ADME, organism-based, Canis lupus familiaris; details: in vivo
[17] = test system: Human immunodeficiency virus 1; test: Antiviral activity against NNRTI-resistant HIV1 harboring reverse transcriptase Y181I mutant infected in human MT4 cells assessed as inhibition of viral replication after 72 hrs by HeLa-CD4-LTR-beta-gal assay; assay type: functional, organism-based
[18] = Clearance in Sprague-Dawley rat at 1 mg/kg, iv; assay type: ADME, organism-based; design: dose 1 mg/kg, route intravenous; details: in vivo
[19] = Oral bioavailability in cynomolgus monkey at 5 mg/kg; assay type: ADME, organism-based, Macaca fascicularis; details: in vivo
[20] = Clearance in dog at 1 mg/kg, iv; assay type: ADME, organism-based, Canis lupus familiaris; design: dose 1 mg/kg, route intravenous; details: in vivo
[21] = Volume of distribution at steady state in dog at 1 mg/kg, iv; assay type: ADME, organism-based, Canis lupus familiaris; design: dose 1 mg/kg, route intravenous; details: in vivo, read-out: Vdss
[22] = Half life in cynomolgus monkey at 1 mg/kg, iv; assay type: ADME, organism-based, Macaca fascicularis; design: dose 1 mg/kg, route intravenous; details: in vivo
Canis familiaris = test: AUC (0 to infinity) in dog at 5 mg/kg, po; assay type: ADME, organism-based, Canis lupus familiaris, Plasma; design: time infinity, dose 5 mg/kg, route oral; details: in vivo
[23] = test system: Human immunodeficiency virus 1; test: Antiviral activity against NNRTI-resistant HIV1 harboring reverse transcriptase Y181V mutant infected in human MT4 cells assessed as inhibition of viral replication after 72 hrs by HeLa-CD4-LTR-beta-gal assay; assay type: functional, organism-based
Mus musculus = test: AUC (0 to infinity) in mouse at 5 mg/kg, po; assay type: ADME, organism-based, Plasma; design: time infinity, dose 5 mg/kg, route oral; details: in vivo
[24] = test system: Human immunodeficiency virus 1; test: Ratio of EC50 for HIV1 expressing wild type reverse transcriptase in presence of human serum albumin and human alpha-1 acid glycoprotein to EC50 for HIV1 expressing wild type reverse transcriptase; assay type: functional
[25] = Volume of distribution at steady state in mouse at 1 mg/kg, iv; assay type: ADME, organism-based; design: dose 1 mg/kg, route intravenous; details: in vivo, read-out: Vdss
[26] = test system: Human immunodeficiency virus 1; test: Selectivity ratio of EC50 for NNRTI-resistant HIV1 harboring reverse transcriptase Y181V mutant to EC50 for HIV1 expressing wild type reverse transcriptase; assay type: functional
[27] = Oral bioavailability in mouse at 5 mg/kg; assay type: ADME, organism-based; details: in vivo
[28] = Clearance in mouse at 1 mg/kg, iv; assay type: ADME, organism-based; design: dose 1 mg/kg, route intravenous; details: in vivo
[29] = test system: Human immunodeficiency virus 1; test: Selectivity ratio of EC50 for NNRTI-resistant HIV1 harboring reverse transcriptase Y181I mutant to EC50 for HIV1 expressing wild type reverse transcriptase; assay type: functional
[30] = test system: Human immunodeficiency virus 1; test: Selectivity ratio of EC50 for NNRTI-resistant HIV1 harboring reverse transcriptase Y188L mutant to EC50 for HIV1 expressing wild type reverse transcriptase; assay type: functional
[31] = Volume of distribution at steady state in Sprague-Dawley rat at 1 mg/kg, iv; assay type: ADME, organism-based; design: dose 1 mg/kg, route intravenous; details: in vivo, read-out: Vdss

Structure (SMILES): N#Cc1cc(Cl)cc(Oc2c(Cl)ccc(CNC(=O)c3cnc[nH]3)c2F)c1
- EC50 [1]: > 1000 nM
- EC50 [2]: 260 nM
- EC50 [3]: 9.7 nM
- EC50 [4]: 48 nM

Structure (SMILES): N#Cc1cc(Cl)cc(Oc2c(Cl)ccc(CNC(=O)c3[nH]c(O)nc3Cl)c2F)c1
- EC50 [1]: > 1000 nM
- EC50 [2]: 57 nM
- EC50 [3]: 5.3 nM
- EC50 [4]: 14 nM

Structure (SMILES): Cc1nc(Cl)c(C(=O)NCc2ccc(Cl)c(Oc3cc(Cl)cc(C#N)c3)c2F)[nH]1
- EC50 [1]: 11 nM
- EC50 [2]: 0.3 nM
- EC50 [3]: 0.2 nM

Structure (SMILES): N#Cc1cc(Cl)cc(Oc2c(Cl)ccc(CNC(=O)c3[nH]c(N)nc3Cl)c2F)c1
- EC50 [1]: 0.9 nM
- EC50 [3]: 0.1 nM

Structure (SMILES): N#Cc1cc(Cl)cc(Oc2c(Cl)ccc(CNC(=O)c3[nH]c(CO)nc3Cl)c2F)c1
- EC50 [1]: 24 nM
- EC50 [2]: 1.2 nM
- EC50 [3]: 0.3 nM

Structure (SMILES): Cn1cncc1C(=O)NCc1ccc(Cl)c(Oc2cc(Cl)cc(C#N)c2)c1F
- EC50 [1]: > 1000 nM
- EC50 [2]: > 1000 nM
- EC50 [3]: 120 nM
- EC50 [4]: 460 nM

Structure (SMILES): N#Cc1cc(Cl)cc(Oc2c(Cl)ccc(CNC(=O)c3cc4ccccc4[nH]3)c2F)c1
- EC50 [1]: > 1000 nM
- EC50 [2]: 58 nM
- EC50 [3]: 8.9 nM
- EC50 [4]: 26 nM

Structure (SMILES): N#Cc1cc(Cl)cc(Oc2c(Cl)ccc(CNC(=O)c3[nH]cnc3C(F)(F)F)c2F)c1
- EC50 [1]: 320 nM
- EC50 [2]: 1.4 nM
- EC50 [3]: 0.1 nM
- EC50 [4]: 0.7 nM

Structure (SMILES): N#Cc1cc(Cl)cc(Oc2c(Cl)ccc(CNC(=O)c3[nH]cnc3Cl)c2F)c1
- EC50 [1]: 5.6 nM
- EC50 [2]: 0.2 nM
- EC50 [3]: 0.1 nM
- pKa [5]: 8.9

Structure (SMILES): O=C1Nc2ccc(Cl)cc2[C@@](C#CC2CC2)(C(F)(F)F)O1 [EFAVIRENZ]
- EC50 [1]: 157 nM
- EC50 [2]: 1 nM
- EC50 [4]: 20 nM

Structure (SMILES): N#Cc1cc(Cl)cc(Oc2c(Cl)ccc(CNC(=O)c3cc4ccccc4o3)c2F)c1
- EC50 [1]: > 1000 nM
- EC50 [2]: 340 nM
- EC50 [3]: 52 nM
- EC50 [4]: 380 nM

Structure (SMILES): Cc1cc(S(N)(=O)=O)ccc1NC(=O)COc1ccc(Cl)cc1C(=O)c1cc(Cl)cc(C#N)c1
- EC50 [1]: 18 nM
- EC50 [2]: 0.5 nM
- EC50 [3]: 0.3 nM
- EC50 [4]: 0.5 nM

Structure (SMILES): Cc1cc(/C=C/C#N)cc(C)c1Nc1ccnc(Nc2ccc(C#N)cc2)n1 [RILPIVIRINE]
- EC50 [1]: 3.7 nM
- inhibition [6]: inactive
- inhibition [7]: inactive
- inhibition [8]: inactive
- inhibition [9]: inactive

Structure (SMILES): N#Cc1cc(Cl)cc(Oc2c(Cl)ccc(CNC(=O)c3[nH]cnc3Br)c2F)c1
- EC50 [1]: 7.1 nM
- EC50 [2]: 0.2 nM
- EC50 [3]: 0.1 nM

Structure (SMILES): N#Cc1cc(Cl)cc(Oc2c(Br)ccc(CNC(=O)c3[nH]c(N)nc3Cl)c2F)c1
- half-life [10]: 2.2 h
- AUC (Rattus norvegicus): 2510 ng·h/mL
- EC50 [1]: 0.5 nM
- half-life [11]: 4.3 h
- bioavailability [12]: 84%
- inhibition [6]: Active
- AUC (Cynomolgus monkey): 6460 ng·h/mL
- Vd [13]: 1.8 L/kg
- half-life [14]: 3.1 h
- clearance [15]: 4.7 mL/min/kg
- bioavailability [16]: 47%
- inhibition [17]: Active
- EC50 [3]: 0.1 nM
- clearance [18]: 28.6 mL/min/kg
- bioavailability [19]: 34%
- clearance [20]: 2.8 mL/min/kg
- Vd [21]: 0.9 L/kg
- EC50 ([7]; Human immunodeficiency virus 1, MT4, 72 h): 3.2 nM
- half-life [22]: 6.1 h
- AUC (Canis familiaris): 14300 ng·h/mL
- inhibition [23]: Active
- AUC (Mus musculus): 9600 ng·h/mL
- Ratio EC50 [24]: 71
- Vd [25]: 2.1 L/kg
- Ratio EC50 [26]: <3
- bioavailability [27]: 94%
- clearance [28]: 8.2 mL/min/kg
- Ratio EC50 [29]: <3
- inhibition [8]: Active
- Ratio EC50 [30]: 5
- Vd [31]: 3.6 L/kg
- inhibition [9]: Active

Structure (SMILES): CCCc1nc(Cl)c(C(=O)NCc2ccc(Cl)c(Oc3cc(Cl)cc(C#N)c3)c2F)[nH]1
- EC50 [1]: 240 nM
- EC50 [2]: 1.3 nM
- EC50 [3]: 0.3 nM
- EC50 [4]: 0.4 nM

Structure (SMILES): N#Cc1cc(Cl)cc(Oc2c(Cl)ccc(CNC(=O)c3ccc(S(N)(=O)=O)cc3Cl)c2F)c1
- EC50 [1]: > 1000 nM
- EC50 [2]: 180 nM
- EC50 [3]: 13 nM
- EC50 [4]: 60 nM

Structure (SMILES): N#Cc1cc(Cl)cc(Oc2c(Cl)ccc(CNC(=O)c3nc4ccccc4[nH]3)c2F)c1
- EC50 [1]: > 1000 nM
- EC50 [2]: 27 nM
- EC50 [3]: 5.1 nM
- EC50 [4]: 18 nM

Structure (SMILES): Cc1nc[nH]c1C(=O)NCc1ccc(Cl)c(Oc2cc(Cl)cc(C#N)c2)c1F
- EC50 [1]: > 1000 nM
- EC50 [2]: 15 nM
- EC50 [3]: 2.4 nM
- EC50 [4]: 7.2 nM
- pKa [5]: > 12

Structure (SMILES): CCc1nc(Cl)c(C(=O)NCc2ccc(Cl)c(Oc3cc(Cl)cc(C#N)c3)c2F)[nH]1
- EC50 [1]: 76 nM
- EC50 [2]: 0.8 nM
- EC50 [3]: 0.3 nM

Structure (SMILES): Cc1cc(C#N)cc(C)c1Oc1nc(Nc2ccc(C#N)cc2)nc(N)c1Br [ETRAVIRINE]
- EC50 [1]: 0.9 nM
- inhibition [6]: inactive
- EC50 [2]: 2.4 nM
- EC50 [3]: 0.6 nM
- inhibition [7]: inactive
- Ratio EC50 [24]: 13
- EC50 [4]: 0.4 nM
- Ratio EC50 [26]: 83
- inhibition [8]: inactive
- inhibition [9]: inactive
